Laboratory results as given in paper PMC12505902, “Inhibitors of trehalose-6-phosphate synthase activity in fungal pathogens compromise thermal tolerance pathways” (mBio, 2025).

Experiments:
Assay type in all cases: cell-based
[1] = system: trehalose content of wild-type C. albicans; experiment: Trehalose measurement (colorimetric glucose assay after trehalase); settings: 0.5 mM 4456dh
Method: Given that 4456dh inhibits the activity of CaTps1 and CnTps1 in vitro and has bioactivity against multiple Candida and Cryptococcus species, we tested whether 4456dh affects trehalose production in cells. We quantified trehalose levels in cells treated with 4456dh at sub-lethal concentrations as determined by the MIC assays using a colorimetric spectrophotometric assay. We measured trehalose production in wild-type C. albicans at 30°C and 42°C, in the presence and absence of 4456dh. […] However, we observed a significant increase in trehalose content when C. albicans was exposed to high temperature stress (P < 0.0001; Fig. 5A).
Fig 5 4456dh treatment results in reduced trehalose accumulation and a decrease in Tps1-dependent virulence factors. […] Trehalose was measured using a colorimetric glucose assay after treatment of cultures with trehalase. […] Cells were harvested, stained in India Ink, and analyzed using differential interference contrast imaging. […]
(§1) 124 technical replicates. Growth, as determined by a reading of absorbance at 600 nm, was
(§2) 125 normalized to untreated controls and was corrected for the absorbance of 4456dh in the YPD […]
(§3) 129 overnight cultures was quantified by measuring the OD600 and corrected for the background
130 absorbance of the medium. Antifungal potency for 4456dh was assessed by minimum inhibitory […]

C. auris = experiment: Fungicidal spot assay on compound-free YPD plates; settings: 30°C and 39°C exposure
Method: (§4) We tested the effects of 4456dh on live cells by determining the minimal inhibitory concentration causing 80% growth reduction (MIC80). Wild-type (WT) C. albicans and C. auris cells were incubated with 4456dh in yeast-peptone-dextrose (YPD) medium at 42°C and 39°C, respectively (Fig. 4A). […] 4456dh inhibited the growth of C. auris with an MIC80 of 7 mM at 39°C (Fig. 4A). The MIC80 increased at 30°C to greater than 13 mM (Fig. S7A).
(§5) Fig 4 4456dh inhibits the growth of Candida and Cryptococcus species. Two-fold dose response assays were performed against (A) C. albicans at 42°C and C. auris at 39°C, (B) C. glabrata at 42°C, and (C) C. neoformans, C. deneoformans, and C. gattii at 37°C. 4456dh was administered at the concentrations indicated. […] Left: relative growth of treated samples was calculated by averaging technical triplicates and normalizing the OD600 of each treated well to the average OD600 of the untreated WT controls, after the absorbance due to the compound was subtracted. The MIC80 values, calculated based on the OD600 values, are indicated in the white text on each heat map. […]
as §1, §2, §3
(§6) 130 absorbance of the medium. […]

C. albicans = experiment: Fungicidal spot assay on compound-free YPD plates; settings: 42°C exposure, then compound-free YPD plates
Method: as §4, §5, §1, §2, §3, §6

SMILES: Cn1cc(-c2csc(NC(=O)Cc3ccccn3)n2)cn1 [Compound 4456dh]
- change in trehalose content ([1]; 30°C): no significant change detected
- change in trehalose content ([1]; 42°C): approximate twofold decrease
- fungicidal activity (C. auris): fungicidal activity of 4456dh on C. auris was also detected
- fungicidal activity (C. albicans): temperature-dependent fungicidal activity
